Measurements: ChEMBL document CHEMBL5321285 (J Med Chem, 2023)
Activity calls are given as the source filed them. No cut-off for these calls is given here.

What was measured:
[1] = target: T1, Sigma non-opioid intracellular receptor 1 (Homo sapiens, UniProt Q99720); experiment: Displacement of [3H]-(+)-pentazocine from human sigma1 receptor transfected in HEK293 cell membranes assessed as inhibition constant incubated for 120 mins in presence of haloperidol by microbeta scintillation counter analysis; set-up: species or system Cell membrane
T1 sequence (Q99720 whole entry): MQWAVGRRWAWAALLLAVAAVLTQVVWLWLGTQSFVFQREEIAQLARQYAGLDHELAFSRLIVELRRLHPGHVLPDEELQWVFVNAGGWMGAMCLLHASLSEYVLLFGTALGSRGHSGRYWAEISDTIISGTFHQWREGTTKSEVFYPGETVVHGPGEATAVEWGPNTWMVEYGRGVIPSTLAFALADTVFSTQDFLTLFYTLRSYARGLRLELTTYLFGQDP

Homo sapiens = organism: Homo sapiens; experiment: Selectivity ratio of Ki for displacement of [3H]-(+)-pentazocine from human sigma1 receptor transfected in HEK293 cell membranes assessed as inhibition constant to Ki for displacement of [3H]-1,3-di-O-tolylguanidine from human sigma 2 receptor/TMEM97 transfected in sigma 1 receptor knockout HEK293 cell membranes assessed as inhibition constant
[2] = target: T2, Sigma intracellular receptor 2 (Homo sapiens, UniProt Q5BJF2); experiment: Displacement of [3H]-1,3-di-O-tolylguanidine from human sigma 2 receptor/TMEM97 transfected in sigma 1 receptor knockout HEK293 cell membranes assessed as inhibition constant measured after 120 mins by microbeta scintillation counting analysis; set-up: species or system Cell membrane
T2 sequence (Q5BJF2 whole entry): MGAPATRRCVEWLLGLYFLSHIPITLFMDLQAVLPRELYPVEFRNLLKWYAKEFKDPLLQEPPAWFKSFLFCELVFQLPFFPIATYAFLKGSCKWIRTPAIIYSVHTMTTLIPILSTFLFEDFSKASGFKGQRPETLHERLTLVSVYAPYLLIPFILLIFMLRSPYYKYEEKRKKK

[3] = Metabolic stability in human liver microsome assessed as parent compound remaining at 1 uM measured after 1 hr in presence of NADPH regenerating system by UPLC-MS/MS analysis; format: ADME; conditions: liver microsomes, read-out: Stability
[4] = Metabolic stability in rat liver microsome assessed as parent compound remaining at 1 uM measured after 1 hr in presence of NADPH regenerating system by UPLC-MS/MS analysis; format: ADME; conditions: liver microsomes, read-out: Stability
[5] = Metabolic stability in mouse liver microsome assessed as parent compound remaining at 1 uM measured after 1 hr in presence of NADPH regenerating system by UPLC-MS/MS analysis; format: ADME; conditions: liver microsomes, read-out: Stability
[6] = target: Voltage-gated inwardly rectifying potassium channel KCNH2 (Homo sapiens, UniProt Q12809); experiment: Inhibition of hERG expressed in CHO cells at holding potential of -80 mV measured for 15 seconds by whole cell patch clamp assay; format: toxicity, cell-based
Chain of Voltage-gated inwardly rectifying potassium channel KCNH2 (Q12809 whole entry): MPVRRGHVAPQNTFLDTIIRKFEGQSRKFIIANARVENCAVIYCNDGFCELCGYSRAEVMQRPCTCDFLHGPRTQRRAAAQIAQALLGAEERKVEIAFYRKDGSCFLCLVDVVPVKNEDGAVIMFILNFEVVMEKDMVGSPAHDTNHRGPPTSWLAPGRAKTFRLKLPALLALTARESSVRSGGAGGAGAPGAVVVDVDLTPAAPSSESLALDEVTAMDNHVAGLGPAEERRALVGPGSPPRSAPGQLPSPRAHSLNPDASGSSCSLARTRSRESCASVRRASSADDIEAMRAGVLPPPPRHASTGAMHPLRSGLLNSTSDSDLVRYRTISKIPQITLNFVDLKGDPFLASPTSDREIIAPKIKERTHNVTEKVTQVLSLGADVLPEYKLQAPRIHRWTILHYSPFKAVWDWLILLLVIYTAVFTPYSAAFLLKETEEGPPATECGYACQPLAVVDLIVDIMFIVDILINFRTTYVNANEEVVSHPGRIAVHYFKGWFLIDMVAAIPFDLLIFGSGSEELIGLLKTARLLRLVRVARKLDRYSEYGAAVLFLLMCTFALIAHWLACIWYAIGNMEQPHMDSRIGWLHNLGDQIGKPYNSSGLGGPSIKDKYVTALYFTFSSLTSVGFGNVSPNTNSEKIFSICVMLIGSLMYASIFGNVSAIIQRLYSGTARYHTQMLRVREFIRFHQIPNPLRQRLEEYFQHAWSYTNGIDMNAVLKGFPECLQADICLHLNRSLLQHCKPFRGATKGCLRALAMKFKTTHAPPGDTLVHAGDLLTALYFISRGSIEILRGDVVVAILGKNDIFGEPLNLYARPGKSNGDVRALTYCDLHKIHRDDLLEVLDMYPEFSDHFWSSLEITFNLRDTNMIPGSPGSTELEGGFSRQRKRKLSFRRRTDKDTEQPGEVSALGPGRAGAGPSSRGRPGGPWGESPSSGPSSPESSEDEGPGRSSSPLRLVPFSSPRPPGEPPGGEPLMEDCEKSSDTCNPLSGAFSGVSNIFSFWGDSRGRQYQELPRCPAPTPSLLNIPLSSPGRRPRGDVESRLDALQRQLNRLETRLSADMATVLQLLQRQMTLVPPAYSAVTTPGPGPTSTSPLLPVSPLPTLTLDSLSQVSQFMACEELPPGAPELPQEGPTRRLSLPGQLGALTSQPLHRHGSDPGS

[7] = target: T1, Sigma non-opioid intracellular receptor 1; experiment: Binding affinity to sigma1 receptor (unknown origin) assessed as inhibition constant
[8] = target: T2, Sigma intracellular receptor 2; experiment: Binding affinity to sigma2 receptor (unknown origin) assessed as inhibition constant
[9] = target: T3, Sigma intracellular receptor 2 (Rattus norvegicus, UniProt Q5U3Y7); experiment: Displacement of [3H]di-o-tolylguanidine from rat liver membrane sigma 2 receptor assessed as inhibition constant in presence of haloperidol; format: cell membranes
T3 sequence (Q5U3Y7 whole entry): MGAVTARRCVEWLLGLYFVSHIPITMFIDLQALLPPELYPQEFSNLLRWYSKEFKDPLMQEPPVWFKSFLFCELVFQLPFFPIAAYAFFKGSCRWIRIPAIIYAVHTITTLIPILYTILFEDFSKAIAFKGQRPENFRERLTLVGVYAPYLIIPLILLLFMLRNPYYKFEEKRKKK

[10] = target: Sigma non-opioid intracellular receptor 1 (Cavia porcellus, UniProt Q60492)
Chain of Sigma non-opioid intracellular receptor 1 (Cavia porcellus, UniProt Q60492) (Q60492 whole entry): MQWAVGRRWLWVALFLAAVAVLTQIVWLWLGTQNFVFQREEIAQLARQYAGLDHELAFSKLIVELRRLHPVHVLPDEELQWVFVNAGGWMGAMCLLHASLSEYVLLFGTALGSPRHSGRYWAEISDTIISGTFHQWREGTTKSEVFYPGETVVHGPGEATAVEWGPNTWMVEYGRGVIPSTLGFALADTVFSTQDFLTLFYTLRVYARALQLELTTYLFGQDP
Description: Displacement of [3H](+)-pentazocine from sigma 1 receptor in guinea pig brain membranes assessed as inhibition constant incubated for 120 mins in presence of haloperidol

[11] = target: Sigma non-opioid intracellular receptor 1 (Rattus norvegicus, UniProt Q9R0C9); experiment: Displacement of [3H](+)-pentazocine from rat liver membranes sigma 1 receptor assessed as inhibition constant incubated for 120 mins; format: cell membranes, Membrane
Chain of Sigma non-opioid intracellular receptor 1 (Rattus norvegicus, UniProt Q9R0C9) (Q9R0C9 whole entry): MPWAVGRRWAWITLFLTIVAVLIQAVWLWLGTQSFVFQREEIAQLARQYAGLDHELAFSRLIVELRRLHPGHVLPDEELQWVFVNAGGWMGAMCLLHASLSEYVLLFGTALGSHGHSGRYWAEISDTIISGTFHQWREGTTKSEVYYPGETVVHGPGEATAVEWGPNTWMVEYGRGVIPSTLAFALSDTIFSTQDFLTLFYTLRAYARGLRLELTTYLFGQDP

[12] = target: T3, Sigma intracellular receptor 2; experiment: Displacement of [3H]di-o-tolylguanidine from rat liver membrane sigma 2 assessed as inhibition constant incubated for 120 mins; format: cell membranes
Neuron = experiment: Neuroprotective activity against MPP+ induced rat neurons at 10 uM pretreated with compond for 1 hr followed by MPP+ addition and measured after 48 hrs; format: functional, cell-based; conditions: time 49.0 hrs
[13] = Binding affinity to sigma1 receptor (unknown origin) assessed as inhibition constant

SMILES | Ki [1] [nM] | Ratio Ki (Homo sapiens) | Ki [2] [nM] | remaining at 1 h, 1 µM [3] [%] | remaining at 1 h, 1 µM [4] [%] | remaining at 1 h, 1 µM [5] [%] | IC50 [6] [nM] | further results
CCc1ncc(-c2cc(C)no2)c(C2CCN(CC(=O)N3CCCOCC3)CC2)n1 | > 1000 | > 200 | 5 | 77 | 84 | 69 | > 10000 | –
Cc1cc(-c2cncnc2C2CCN(CC(=O)N3CCOCC3)CC2)on1 | > 1000 | > 2 | 457 | – | – | – | – | –
CCc1ncc(-c2nccn2C)c(C2CCN(CC(=O)N3CCOCC3)CC2)n1 | > 10000 | > 10 | 951 | – | – | – | – | –
Cc1cc(-c2cnc(C(C)C)nc2C2CCN(CC(=O)N3CCOCC3)CC2)on1 | > 1000 | > 21 | 47 | 80 | 81 | 65 | 3600 | –
CCc1ncc(-c2cccc(C)n2)c(C2CCN(CC(=O)N3CCOCC3)CC2)n1 | > 1000 | > 8.6 | 116 | 83 | 96 | 76 | – | –
CCc1ncc(-c2cc(C)no2)c(C2CCN(CCN3CCOCC3)CC2)n1 | 150 | – | 38 | 75 | 67 | 56 | > 10000 | –
CCc1ncc(-c2cc(C)no2)c(C2CCCN(CC(=O)N3CCOCC3)CC2)n1 (stereo not given) | 237 | – | 131 | – | – | – | – | –
Cc1cc(-c2cnc(C3CC3)nc2C2CCN(CC(=O)N3CCOCC3)CC2)on1 | 789 | 789 | 1 | 86 | 84 | 97 | 4200 | –
O=C(CN1CCC(CN2Cc3ccccc3C2=O)CC1)c1ccc(F)cc1 [ROLUPERIDONE] | – | – | – | – | – | – | – | Ki [7]: ≥ 1000 nM
OCCCN1CCCC2CC1c1cc(-c3ccc(C(F)(F)F)cc3)ccc12 (stereo not given) | – | – | – | – | – | – | – | Ki [7]: 1280 nM; Ki [8]: 46 nM
CCc1ncc(-c2ccccn2)c(C2CCN(CC(=O)N3CCOCC3)CC2)n1 | > 1000 | > 3 | 319 | – | – | – | – | –
CCCc1ncc(-c2cc(C)no2)c(C2CCN(CC(=O)N3CCOCC3)CC2)n1 | > 1000 | > 16 | 61 | 89 | 90 | 89 | 5400 | –
Cc1cc(-c2cnc(C(F)(F)F)nc2C2CCN(CC(=O)N3CCOCC3)CC2)on1 | > 1000 | > 166 | 6 | 78 | 71 | 77 | > 10000 | –
CCc1ncc(-c2cc(C)no2)c(C2CCN(CC(=O)N3CCCCC3)CC2)n1 | 882 | 220 | 4 | 58 | 101 | 59 | 8700 | –
CCc1ncc(-c2cc(C)no2)c(C2CCN(CC(=O)N3CCCN(C)CC3)CC2)n1 | > 1000 | > 10 | 98 | 85 | 97 | 83 | > 10000 | –
CCc1ncc(-c2cc(C)no2)c(C2CCN(CC(=O)N3CCOCC3)C2)n1 (stereo not given) | > 1000 | – | > 1000 | – | – | – | – | –
CN1CC[C@]2(c3cccc(O)c3)CC(=O)/C(=C/c3ccc(Cl)c(Cl)c3)[C@H]1C2 | – | – | – | – | – | – | – | Ki [9]: 13.4 nM; Ki [10]: 7440 nM
COc1cc2c(cc1OC)CN(CCCCn1c(=O)n(C)c3ccccc31)CC2 | – | – | – | – | – | – | – | Ki [7]: 560 nM; Ki [8]: 0.43 nM
CCc1ncc(-c2cc(C)no2)c([C@H]2CCCN(CC(=O)N3CCOCC3)C2)n1 | > 10000 | – | 788 | – | – | – | – | –
CCc1ncc(-c2ccncc2)c(C2CCN(CC(=O)N3CCOCC3)CC2)n1 | 807 | 1.1 | 727 | – | – | – | – | –
Cc1cc(-c2cnc(C)nc2C2CCN(CC(=O)N3CCOCC3)CC2)on1 | 8270 | 140 | 59 | 104 | 100 | 87 | > 10000 | –
Cc1cc(-c2cnc(C)nc2C2CCN(C(=O)CN3CCOCC3)CC2)on1 | > 1000 | – | > 1000 | – | – | – | – | –
CCn1cc(-c2cc(C)no2)c(C2CCN(CC(=O)N3CCOCC3)CC2)n1 | > 1000 | – | 496 | – | – | – | – | –
CC(=O)c1ccc2c(c1)oc(=O)n2CCCCN1CCN(c2ccc(F)cc2N)CC1 | – | – | – | – | – | – | – | Ki [11]: 87 nM; Ki [12]: 3.5 nM
CCc1ncc(-c2cc(C)no2)c(C2CCN(CCC(=O)N3CCOCC3)CC2)n1 | > 1000 | – | 62 | 86 | 95 | 94 | 4500 | –
CCc1ncc(-c2cc(C)no2)c([C@@H]2CCCN(CC(=O)N3CCOCC3)C2)n1 | > 10000 | – | 164 | – | – | – | – | –
CCn1ncc(-c2cc(C)no2)c1C1CCN(CC(=O)N2CCOCC2)CC1 | > 1000 | – | > 1000 | – | – | – | – | –
CC(C)(C)Oc1cc(CCC(C)(C)N2Cc3ccc(S(C)(=O)=O)cc3C2)ccc1O | 23 | 4.6 | 5 | 60 | 37 | 62 | – | Ki [8]: 8 nM; Activity (Neuron): Active; Ki [13]: 63 nM
CCc1ncc(-c2cc(C)no2)c(C2CCN(CC(=O)N3CCC4(CCOC4)CC3)CC2)n1 | 2150 | 2150 | 1 | 82 | 92 | 88 | > 10000 | –
